Key:
Type in all cases: in vivo
Downy Brome = experiment: Pre-emergent herbicidal activity (Table A); conditions: Bromus tectorum, pre-emergence, Dobr, 11.2 kg/ha, 10-14 days, read-out: herbicidal rating (% inhibition)
In short: (§1)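 Seeds or vegetative propagules were set on topsoil compacted to 0.95 to 1.27 cm below the pan rim, then covered with soil thoroughly mixed with a known amount of test compound in acetone or water carrier. Ratings follow a scale of percent inhibition per species.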

Morningglory = experiment: Pre-emergent herbicidal activity (Table A); conditions: Ipomoea, pre-emergence, Mogl, 11.2 kg/ha, 10-14 days, read-out: herbicidal rating (% inhibition)
In short: as §1

Yellow Nutsedge = experiment: Pre-emergent herbicidal activity (Table A); conditions: Cyperus, pre-emergence, Yens, 11.2 kg/ha, 10-14 days, read-out: herbicidal rating (% inhibition)
In short: as §1

Cocklebur = experiment: Pre-emergent herbicidal activity (Table A); conditions: Xanthium strumarium, pre-emergence, Cobu, 11.2 kg/ha, 10-14 days, read-out: herbicidal rating (% inhibition)
In short: as §1

Rice = experiment: plant injury after spraying emerged plants (Table D); parameters: scale not given here
In short: (§2)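 Seeds or perennial propagules were pressed onto steam-sterilized sieved silt loam topsoil and covered with 1.27 cm of a 50:50 topsoil and peat moss/vermiculite/wetting agent mix. Pans were kept on a greenhouse bench over capillary mat and subirrigated as needed.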

Corn = experiment: as above; parameters: scale not given here
In short: as §2

Lacg = experiment: as above; parameters: scale not given here
In short: as §2

Cobu = experiment: as above; parameters: scale not given here
In short: as §2

Bygr = experiment: as above; parameters: scale not given here
In short: as §2

Grft = experiment: as above; parameters: scale not given here
In short: as §2

Prmi = experiment: as above; parameters: scale not given here
In short: as §2

Mogl = experiment: as above; parameters: scale not given here
In short: as §2

Sobe = experiment: as above; parameters: scale not given here
In short: as §2

Grso = experiment: as above; parameters: scale not given here
In short: as §2

Whez = experiment: as above; parameters: scale not given here
In short: as §2

Dobr = experiment: as above

With `COC(=O)c1c(OC)nc(C(F)(F)F)c(C(=O)n2cccn2)c1CC1CC1` [Compound 116, 3-pyridinecarboxylic acid, 4-(cyclopropylmethyl)-2-methoxy-5-(1H-pyrazo1-1-ylcarbonyl)-6-(trifluoromethyl)-, methyl ester] the inhibition at 11200 g/ha (Downy Brome) was 75 to 100%, the inhibition at 11200 g/ha (Morningglory) was 75 to 100% and the inhibition at 11200 g/ha (Yellow Nutsedge) was 75 to 100%. For the same molecule, the inhibition at 11200 g/ha (Cocklebur) was 50 to 74%, the “plant injury rating, Rice” value (Rice; 0.0701 kg/ha) was 0 and the “plant injury rating, Rice” value (Rice; 0.2803 kg/ha) was 0. The “plant injury rating, Rice” value (Rice; 1.1210 kg/ha) was 0, the “plant injury rating, Rice” value (Rice; 5.6050 kg/ha) was 0 and the “plant injury rating, Corn” value (Corn; 0.0701 kg/ha) was 0. The “plant injury rating, Corn” value (Corn; 0.2803 kg/ha) was 0, the “plant injury rating, Corn” value (Corn; 1.1210 kg/ha) was 2 and the “plant injury rating, Corn” value (Corn; 5.6050 kg/ha) was 2. For the same molecule, the “plant injury rating, Lacg” value (Lacg; 0.0701 kg/ha) was 2, the “plant injury rating, Lacg” value (Lacg; 0.2803 kg/ha) was 2 and the “plant injury rating, Lacg” value (Lacg; 1.1210 kg/ha) was 2. The “plant injury rating, Lacg” value (Lacg; 5.6050 kg/ha) was 2, the “plant injury rating, Cobu” value (Cobu; 0.0701 kg/ha) was 0 and the “plant injury rating, Cobu” value (Cobu; 0.2803 kg/ha) was 1. The “plant injury rating, Cobu” value (Cobu; 1.1210 kg/ha) was 2, the “plant injury rating, Cobu” value (Cobu; 5.6050 kg/ha) was 2 and the “plant injury rating, Bygr” value (Bygr; 0.0701 kg/ha) was 0. The “plant injury rating, Bygr” value (Bygr; 0.2803 kg/ha) was 0, the “plant injury rating, Bygr” value (Bygr; 1.1210 kg/ha) was 0 and the “plant injury rating, Bygr” value (Bygr; 5.6050 kg/ha) was 1. The “plant injury rating, Grft” value (Grft; 0.0701 kg/ha) was 0, the “plant injury rating, Grft” value (Grft; 0.2803 kg/ha) was 0 and the “plant injury rating, Grft” value (Grft; 1.1210 kg/ha) was 0. For the same molecule, the “plant injury rating, Grft” value (Grft; 5.6050 kg/ha) was 1, the “plant injury rating, Prmi” value (Prmi; 0.0701 kg/ha) was 0 and the “plant injury rating, Prmi” value (Prmi; 0.2803 kg/ha) was 0. For the same molecule, the “plant injury rating, Prmi” value (Prmi; 1.1210 kg/ha) was 0, the “plant injury rating, Prmi” value (Prmi; 5.6050 kg/ha) was 0 and the “plant injury rating, Mogl” value (Mogl; 0.0701 kg/ha) was 2. The “plant injury rating, Mogl” value (Mogl; 0.2803 kg/ha) was 1, the “plant injury rating, Mogl” value (Mogl; 1.1210 kg/ha) was 2 and the “plant injury rating, Mogl” value (Mogl; 5.6050 kg/ha) was 2. The “plant injury rating, Sobe” value (Sobe; 0.0701 kg/ha) was 1, the “plant injury rating, Sobe” value (Sobe; 0.2803 kg/ha) was 1 and the “plant injury rating, Sobe” value (Sobe; 1.1210 kg/ha) was 2. The “plant injury rating, Sobe” value (Sobe; 5.6050 kg/ha) was 2, the “plant injury rating, Grso” value (Grso; 0.2803 kg/ha) was 0 and the “plant injury rating, Grso” value (Grso; 1.1210 kg/ha) was 0. For the same molecule, the “plant injury rating, Grso” value (Grso; 5.6050 kg/ha) was 1, the “plant injury rating, Whez” value (Whez; 0.0701 kg/ha) was 0 and the “plant injury rating, Whez” value (Whez; 0.2803 kg/ha) was 0. The “plant injury rating, Whez” value (Whez; 1.1210 kg/ha) was 0, the “plant injury rating, Whez” value (Whez; 5.6050 kg/ha) was 0 and the “plant injury rating, Dobr” value (Dobr; 0.0701 kg/ha) was 0. The “plant injury rating, Dobr” value (Dobr; 0.2803 kg/ha) was 0, the “plant injury rating, Dobr” value (Dobr; 1.1210 kg/ha) was 0 and the “plant injury rating, Dobr” value (Dobr; 5.6050 kg/ha) was 0.

`COC(=O)c1c(OC)nc(C(F)(F)F)c(C2=NCCCS2)c1CC(C)C` [Compound 98, 3-pyridinecarboxylic acid, 5-(5,6-dihydro-4H-1,3-thiazin-2-yl)-2-methoxy-4-(2-methylpropyl)-6-(trifluoromethyl)-, methyl ester] was tested, and the inhibition at 11200 g/ha (Downy Brome) was 75 to 100%, the inhibition at 11200 g/ha (Morningglory) was 75 to 100% and the inhibition at 11200 g/ha (Yellow Nutsedge) was 0 to 24%. The inhibition at 11200 g/ha (Cocklebur) was 0 to 24%, the “plant injury rating, Rice” value (Rice; 0.0701 kg/ha) was 0 and the “plant injury rating, Rice” value (Rice; 0.2803 kg/ha) was 0. The “plant injury rating, Rice” value (Rice; 1.1210 kg/ha) was 0, the “plant injury rating, Rice” value (Rice; 5.6050 kg/ha) was 0 and the “plant injury rating, Corn” value (Corn; 0.0701 kg/ha) was 0. For the same molecule, the “plant injury rating, Corn” value (Corn; 0.2803 kg/ha) was 0, the “plant injury rating, Corn” value (Corn; 1.1210 kg/ha) was 0 and the “plant injury rating, Corn” value (Corn; 5.6050 kg/ha) was 2. The “plant injury rating, Lacg” value (Lacg; 0.0701 kg/ha) was 0, the “plant injury rating, Lacg” value (Lacg; 0.2803 kg/ha) was 2 and the “plant injury rating, Lacg” value (Lacg; 1.1210 kg/ha) was 3. The “plant injury rating, Lacg” value (Lacg; 5.6050 kg/ha) was 3, the “plant injury rating, Cobu” value (Cobu; 0.0701 kg/ha) was 0 and the “plant injury rating, Cobu” value (Cobu; 0.2803 kg/ha) was 1. For the same molecule, the “plant injury rating, Cobu” value (Cobu; 1.1210 kg/ha) was 1, the “plant injury rating, Cobu” value (Cobu; 5.6050 kg/ha) was 2 and the “plant injury rating, Bygr” value (Bygr; 0.0701 kg/ha) was 0. For the same molecule, the “plant injury rating, Bygr” value (Bygr; 0.2803 kg/ha) was 0, the “plant injury rating, Bygr” value (Bygr; 1.1210 kg/ha) was 0 and the “plant injury rating, Bygr” value (Bygr; 5.6050 kg/ha) was 0. The “plant injury rating, Grft” value (Grft; 0.0701 kg/ha) was 0, the “plant injury rating, Grft” value (Grft; 0.2803 kg/ha) was 0 and the “plant injury rating, Grft” value (Grft; 1.1210 kg/ha) was 0. For the same molecule, the “plant injury rating, Grft” value (Grft; 5.6050 kg/ha) was 1, the “plant injury rating, Prmi” value (Prmi; 0.0701 kg/ha) was 0 and the “plant injury rating, Prmi” value (Prmi; 0.2803 kg/ha) was 1. The “plant injury rating, Prmi” value (Prmi; 5.6050 kg/ha) was 2, the “plant injury rating, Mogl” value (Mogl; 0.0701 kg/ha) was 0 and the “plant injury rating, Mogl” value (Mogl; 0.2803 kg/ha) was 0. The “plant injury rating, Mogl” value (Mogl; 1.1210 kg/ha) was 1, the “plant injury rating, Mogl” value (Mogl; 5.6050 kg/ha) was 2 and the “plant injury rating, Sobe” value (Sobe; 0.0701 kg/ha) was 0. The “plant injury rating, Sobe” value (Sobe; 0.2803 kg/ha) was 0, the “plant injury rating, Sobe” value (Sobe; 1.1210 kg/ha) was 0 and the “plant injury rating, Sobe” value (Sobe; 5.6050 kg/ha) was 2. For the same molecule, the “plant injury rating, Grso” value (Grso; 0.0701 kg/ha) was 0, the “plant injury rating, Grso” value (Grso; 0.2803 kg/ha) was 0 and the “plant injury rating, Grso” value (Grso; 1.1210 kg/ha) was 0. For the same molecule, the “plant injury rating, Grso” value (Grso; 5.6050 kg/ha) was 1, the “plant injury rating, Whez” value (Whez; 0.0701 kg/ha) was 0 and the “plant injury rating, Whez” value (Whez; 0.2803 kg/ha) was 0. The “plant injury rating, Whez” value (Whez; 1.1210 kg/ha) was 0, the “plant injury rating, Whez” value (Whez; 5.6050 kg/ha) was 0 and the “plant injury rating, Dobr” value (Dobr; 0.0701 kg/ha) was 0. The “plant injury rating, Dobr” value (Dobr; 0.2803 kg/ha) was 0, the “plant injury rating, Dobr” value (Dobr; 1.1210 kg/ha) was 0 and the “plant injury rating, Dobr” value (Dobr; 5.6050 kg/ha) was 0.
